Source: patent US12594280B2, “Antiviral compositions for treating the flu” (UNIVERSITE CLAUDE BERNARD LYON 1, priority 2015, dated 2026)
Read-outs that look alike come from different tables or passages of the source.

What was measured:
[1] = tested on: H1N1 pdm09 virus (A/Pdm/09); format: cell-based, human influenza A virus
[2] = in vivo evaluation in mice of toxicity (change in weight); conditions: gavage; oseltamivir 10 mg/kg/day, etilefrine 3 mg/kg/day, diltiazem 90 mg/kg/day
Protocol: FIG. 4. In vivo evaluation of the toxicity of the following molecules: oseltamivir, monensin, diltiazem, etilefrine and isoxicam. The “Saline” control indicates the weight of mice treated with PBS. The curve represents the change in weight (weight gain/loss expressed as a percentage) of the various groups of mice over time.
The “Saline” control denotes untreated mice, having been treated with PBS.
The following daily amounts were administered by gavage to the mice: • oseltamivir: 10 mg/kg/day • etilefrine: 3 mg/kg/day • diltiazem: 90 mg/kg/day

H1N1 pdm09 virus [3] = assay: in vivo antiviral effect, treatment started before H1N1 infection of mice; conditions: B57BL/6 mice, gavage on Day-1, day of and 3 days following infection
Protocol: B57BL/6 mice (age 7-8 weeks) are treated by gavage before (Day-1), the day of, and 3 days following infection with H1N1 pdm09 virus, according to the protocol shown diagrammatically in FIG. 5A.
The following parameters are evaluated over time: • FIG. 5B: Survival rate over time, up to 14 days post-infection; • FIG. 5C: Weight loss and gain observed over time; • FIG. 5D: Viral titer in the lungs of infected and treated mice.

H1N1 pdm09 virus [4] = assay: in vivo antiviral effect, treatment 24 hours after H1N1 infection of mice; conditions: B57BL/6 mice, gavage, treatment 24 hours after infection, up to 14 days post-infection
Protocol: B57BL/6 mice (age 7-8 weeks) are treated by gavage after infection with H1N1 pdm09 virus, according to the protocol shown diagrammatically in FIG. 6A. Survival rate over time is measured for infected mice receiving no treatment (FIG. 6B); treated with oseltamivir (FIG. 6C); and treated with diltiazem (FIG. 6D). The survival rate of mice treated with oseltamivir, and of those treated with diltiazem, is 100%.

H1N1 pdm09 virus [5] = format: cell-based, human influenza A virus
influenza H1N1 pdm09 = format: cell-based, influenza virus
[6] = tested on: A/Moscow/10/99 (H3N2) strain; format: cell-based, human influenza A virus; conditions: A549 cells, FIG. 2
H1N1 pdm09 = format: cell-based, human influenza A virus

COc1ccc([C@@H]2Sc3ccccc3N(CCN(C)C)C(=O)[C@@H]2OC(C)=O)cc1 [diltiazem]
normalized virus production [1]: significant decrease
virus production, comparison of the conditions ([1]; diltiazem alone at 9 nM, FIG. 3B): best results
toxicity (change in weight of the mice) [2]: clearly nontoxic
survival at 14 days (H1N1 pdm09 virus [3]): 90%
survival rate (H1N1 pdm09 virus [4]): 100%
decrease of relative viral titer / virus production relative to the control value (H1N1 pdm09 virus [5]): about 20%
antiviral effect on virus production (influenza H1N1 pdm09; diltiazem 9 μM): no significant antiviral affect
antiviral effect on virus production (influenza H1N1 pdm09; diltiazem 90 μM, compared with oseltamivir 1 μM): comparable antiviral effect

CCNCC(O)c1cccc(O)c1 (stereo not drawn) [etilefrine]
normalized virus production [1]: significant decrease
antiviral effects [6]: significant from the lowest concentration tested
concentration that completely inhibits virus production [6]: 0.018 µM
toxicity (change in weight of the mice) [2]: clearly nontoxic
survival at 14 days (H1N1 pdm09 virus [3]): 70%

CC(=O)O[C@H]1C[C@H](O[C@H]2[C@@H](O)C[C@H](O[C@H]3[C@@H](O)C[C@H](O[C@H]4CC[C@@]5(C)[C@H](CC[C@@H]6[C@@H]5C[C@@H](O)[C@]5(C)[C@@H](C7=CC(=O)OC7)CC[C@]65O)C4)O[C@@H]3C)O[C@@H]2C)O[C@H](C)[C@H]1O[C@@H]1O[C@H](CO)[C@@H](O)[C@H](O)[C@H]1O [lanatoside C]
normalized virus production [1]: did not make it possible to confirm the antiviral activity

CC[C@@]1([C@@H]2O[C@@H]([C@H]3O[C@@](O)(CO)[C@H](C)C[C@@H]3C)C[C@@H]2C)CC[C@H]([C@]2(C)CC[C@]3(C[C@H](O)[C@@H](C)[C@@H]([C@@H](C)[C@@H](OC)[C@H](C)C(=O)O)O3)O2)O1 [monensin]
normalized virus production [1]: significant decrease
decrease of virus production relative to the control value (H1N1 pdm09 virus [5]): about 72%

CCOC(=O)C1=C[C@@H](OC(CC)CC)[C@H](NC(C)=O)[C@@H](N)C1 [oseltamivir]
virus production decreased to ([1]; oseltamivir alone, FIGS. 3A and 3B): about 40%
toxicity (change in weight of the mice) [2]: highest cell toxicity
survival at 14 days (H1N1 pdm09 virus [3]): 60%
survival rate (H1N1 pdm09 virus [4]): 100%
virus production decreased to a value relative to the control value (H1N1 pdm09 virus [5]): about 55%
decrease of virus production relative to the control value (influenza H1N1 pdm09): up to 3 log 10
antiviral effect on virus production (influenza H1N1 pdm09; oseltamivir 0.1 μM): no significant antiviral affect
Dose Oseltamivir (H1N1 pdm09; Fa = 0.90 (90%)): 7.50797 µM
Dose Oseltamivir (H1N1 pdm09; Fa = 0.95 (95%)): 62.435 µM
Dose Oseltamivir (H1N1 pdm09; Fa = 0.97 (97%)): 281.813 µM

NC(=O)c1ncn([C@@H]2O[C@H](CO)[C@@H](O)[C@H]2O)n1 [ribavirin]
normalized virus production [1]: significant decrease
